These results are taken from PubChem BioAssay AID504343 (Broad Institute, 2011).

Molecules are shown by their SMILES. Records with an inconclusive call do not appear. Activity calls are given as the source filed them.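 The calls were made as follows: active = fitted curve reaches 10% of positive control caspase signal at or below top valid tested dose; inconclusive = flat fit at 30 to 70% activity, or unreliable fit; inactive = the rest.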 Some results are limits rather than exact numbers.

Assay [1] is described as follows: apoptosis induction in HMC1-8 cells – cell-based, caspase luminescence, dry powder, set 2, selectivity assay for Bcl2-A1 inhibitor project, dose response (AID 504343). As to conditions: HMC1-8 Mcl1-dependent cells, caspase-Glo luminescence, 4 h; at 35 µM (top of the series).
The test system of assay [2] is HMC1-8 Mcl1-dependent cells, caspase-Glo luminescence, 4 h. Described as above.

As to `CCOCCCNc1c([N+](=O)[O-])c(=O)n(C)c2ccccc12`, the caspase activation in assay [1] was -2.94% (inactive). For `Cc1ccc(Sc2c([N+](=O)[O-])cnc3ccccc23)cc1`, the AC10 in assay [2] is 25 µM. On to `Cn1c(=O)c([N+](=O)[O-])c(-n2cnc3ccccc32)c2ccccc21`, for which the AC10 in assay [2] was 20 µM. For the compound `Cn1c(=O)c([N+](=O)[O-])c(Cl)c2ccccc21`, the caspase activation in assay [1] is -12.8% (inactive).

Consider `Cn1c(=O)c([N+](=O)[O-])c(Nc2ccc(Cl)cc2)c2ccccc21`, for which the caspase activation in assay [1] was 1.67% (inactive). For `C/C1=C/C(=O)O[C@@H]2C[C@@H](CC[C@H](C)/C=C\CC1)O[C@@](O)(C1CSC(=O)N1)C2` (some centres not stated), in assay [2], the AC10 was > 35 µM (inactive). On the same count and under the same terms, with `O=[N+]([O-])c1cnc2ccccc2c1Sc1ccccc1` the figure was 25 µM. `Cc1ccc(Sc2c([N+](=O)[O-])c(=O)n(C)c3ccccc23)cc1`: the caspase activation in assay [1] is 0.553% (inactive). Still for that read-out and setting: with `Cn1c(=O)c([N+](=O)[O-])c(Oc2ccccc2)c2ccccc21` the figure was 2.58% (inactive). Still for that read-out and setting: with `CN1C(=O)C(C)(C)N(Cc2ccccc2)c2ccccc21` the figure was 9.6% (inactive); with `Cc1ccc(Nc2c([N+](=O)[O-])c(=O)n(C)c3ccccc23)cc1`, 10.1% (inactive); with `Cc1ccc(Nc2c([N+](=O)[O-])c(=O)oc3ccccc23)cc1`, 12.1% (inactive).
